The target in one data set is T1, rat mGluR5 (Rattus norvegicus, UniProt P31424).
T1 construct: expressed in transfected cells
As to the kind of experiment: mGluR5 assay on HEK-expressing rat mGluR5 (fluorescent cell based Ca2+ mobilization assay). The settings on record: for activation of rat mGluR5 receptors without co-addition of glutamate or mGluR5 agonist: HEK-rat mGluR5 cell line; for EC50: HEK-293 cells stably expressing rat mGluR5, no co-addition of glutamate, mean of at least three independent experiments in duplicate, read-out: Ca++ Flux (mean EC50). The method, then: Positive functional expression of HEK-293 cells stably expressing rat mGluR5 receptor was determined by measuring intracellular Ca^2+ changes using a Fluorometric Imaging Plate Reader (FLIPR, Molecular Devices, Sunnyvale, Calif.) in response to glutamate or selective known mGluR5 agonists and antagonists. Rat mGluR5RT-PCR products in HEK-293 cells were sequenced and found 100% identical to rat mGluR5Genbank reference sequence (NM_017012). HEK-293 cells expressing rmGluR5 were maintained in media containing DMEM, dialyzed Fetal Bovine Serum (10%), Glutamax™ (2 mM), Penicillin (100 units/ml), Streptomycin (100 μg/ml), Geneticin (100 μg/ml) and Hygromycin-B (40 μg/ml) at 37° C./5% CO2.
After one day of incubation, cells were washed with assay buffer containing: 142 mM NaCl, 6 mM KCl, 1 mM […], 1 mM CaCl2, 20 mM HEPES, 1 g/L glucose, 0.125 mM sulfinpyrazone, pH 7.4. After 60 min of loading with 4 uM Fluo-4 (TefLabs, Austin, Tex.), the cells were washed three times with 50 μl of PBS Buffer and resuspended in 45 μl of assay Buffer. The plates were then transferred to a Fluorometric Imaging Plate Reader (FLIPR, Molecular Devices, Sunnyvale, Calif.) for the assessment of intracellular calcium flux. After monitoring the baseline fluorescence for 10 seconds, increasing concentrations of representative compound (from 0.01 to 60 μM) of the present invention diluted in Assay Buffer (15 μl of 4× dilutions) was added to the cell. The final DMSO concentration in the assay was 0.3%. In each experiment, fluorescence was then monitored as a function of time for 3 minutes and the data analyzed using Microsoft Excel and GraphPad Prism. Each data point was also measured two times.
Under these experimental conditions, this HEK-rat mGluR5 cell line is able to directly detect positive allosteric modulators without the need of co-addition of glutamate or mGluR5 agonist.
The concentration-response curves of representative compounds of the present invention were generated using the Prism GraphPad software (Graph Pad Inc, San Diego, USA). The curves were fitted to a four-parameter logistic equation:
(Y=Bottom+(Top−Bottom)/(1+10̂((Log EC50−X)*Hill Slope)
allowing determination of EC50 values.
The Table 5 below represents the mean EC50 obtained from at least three independent experiments of selected molecules performed in duplicate.
On the technique in general: Calcium flux is commonly read through the fluorescence of an indicator in the cells.

Another data set deals with T2, mGluR5 (Rattus norvegicus, UniProt P31424).
T2 construct: positive allosteric modulators of mGluR5 receptors in native preparations; endogenous in cells; host or cells: primary cortical astrocytes from Sprague-Dawley rat embryos (E16-19)
T2 sequence (P31424 21-1203): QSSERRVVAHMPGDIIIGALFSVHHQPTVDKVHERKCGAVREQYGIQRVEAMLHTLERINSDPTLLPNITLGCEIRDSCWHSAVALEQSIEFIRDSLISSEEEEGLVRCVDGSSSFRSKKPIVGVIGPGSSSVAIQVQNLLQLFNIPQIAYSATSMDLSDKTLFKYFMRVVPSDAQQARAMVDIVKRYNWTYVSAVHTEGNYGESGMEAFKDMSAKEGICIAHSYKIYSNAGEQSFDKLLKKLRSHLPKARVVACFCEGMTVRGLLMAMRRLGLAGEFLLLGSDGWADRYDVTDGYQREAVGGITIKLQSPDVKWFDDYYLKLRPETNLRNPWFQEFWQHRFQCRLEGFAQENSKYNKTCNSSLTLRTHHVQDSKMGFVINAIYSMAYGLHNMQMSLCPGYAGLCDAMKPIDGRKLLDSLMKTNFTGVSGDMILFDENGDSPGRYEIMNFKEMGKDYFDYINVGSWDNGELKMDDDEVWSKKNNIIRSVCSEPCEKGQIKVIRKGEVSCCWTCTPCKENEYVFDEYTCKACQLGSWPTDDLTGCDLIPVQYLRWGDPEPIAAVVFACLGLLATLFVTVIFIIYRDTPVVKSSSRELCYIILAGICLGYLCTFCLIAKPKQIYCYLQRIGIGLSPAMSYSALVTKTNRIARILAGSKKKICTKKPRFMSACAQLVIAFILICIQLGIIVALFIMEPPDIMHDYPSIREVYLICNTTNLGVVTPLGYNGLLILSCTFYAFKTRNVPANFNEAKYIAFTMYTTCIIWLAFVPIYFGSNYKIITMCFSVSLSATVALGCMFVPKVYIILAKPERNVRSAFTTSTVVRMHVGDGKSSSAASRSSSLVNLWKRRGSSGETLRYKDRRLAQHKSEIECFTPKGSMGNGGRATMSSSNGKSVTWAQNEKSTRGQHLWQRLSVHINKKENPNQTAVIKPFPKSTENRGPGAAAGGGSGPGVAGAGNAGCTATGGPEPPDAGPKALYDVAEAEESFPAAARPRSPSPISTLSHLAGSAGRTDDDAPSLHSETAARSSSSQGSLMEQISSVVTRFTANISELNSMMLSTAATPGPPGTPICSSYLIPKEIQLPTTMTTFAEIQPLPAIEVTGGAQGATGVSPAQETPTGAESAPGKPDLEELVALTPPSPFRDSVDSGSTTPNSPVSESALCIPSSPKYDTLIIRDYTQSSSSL
To be noted: cited from earlier work.

Some results are limits rather than exact numbers.

T1 sequence (P31424 21-1171 isoform P31424-2 limits assumed): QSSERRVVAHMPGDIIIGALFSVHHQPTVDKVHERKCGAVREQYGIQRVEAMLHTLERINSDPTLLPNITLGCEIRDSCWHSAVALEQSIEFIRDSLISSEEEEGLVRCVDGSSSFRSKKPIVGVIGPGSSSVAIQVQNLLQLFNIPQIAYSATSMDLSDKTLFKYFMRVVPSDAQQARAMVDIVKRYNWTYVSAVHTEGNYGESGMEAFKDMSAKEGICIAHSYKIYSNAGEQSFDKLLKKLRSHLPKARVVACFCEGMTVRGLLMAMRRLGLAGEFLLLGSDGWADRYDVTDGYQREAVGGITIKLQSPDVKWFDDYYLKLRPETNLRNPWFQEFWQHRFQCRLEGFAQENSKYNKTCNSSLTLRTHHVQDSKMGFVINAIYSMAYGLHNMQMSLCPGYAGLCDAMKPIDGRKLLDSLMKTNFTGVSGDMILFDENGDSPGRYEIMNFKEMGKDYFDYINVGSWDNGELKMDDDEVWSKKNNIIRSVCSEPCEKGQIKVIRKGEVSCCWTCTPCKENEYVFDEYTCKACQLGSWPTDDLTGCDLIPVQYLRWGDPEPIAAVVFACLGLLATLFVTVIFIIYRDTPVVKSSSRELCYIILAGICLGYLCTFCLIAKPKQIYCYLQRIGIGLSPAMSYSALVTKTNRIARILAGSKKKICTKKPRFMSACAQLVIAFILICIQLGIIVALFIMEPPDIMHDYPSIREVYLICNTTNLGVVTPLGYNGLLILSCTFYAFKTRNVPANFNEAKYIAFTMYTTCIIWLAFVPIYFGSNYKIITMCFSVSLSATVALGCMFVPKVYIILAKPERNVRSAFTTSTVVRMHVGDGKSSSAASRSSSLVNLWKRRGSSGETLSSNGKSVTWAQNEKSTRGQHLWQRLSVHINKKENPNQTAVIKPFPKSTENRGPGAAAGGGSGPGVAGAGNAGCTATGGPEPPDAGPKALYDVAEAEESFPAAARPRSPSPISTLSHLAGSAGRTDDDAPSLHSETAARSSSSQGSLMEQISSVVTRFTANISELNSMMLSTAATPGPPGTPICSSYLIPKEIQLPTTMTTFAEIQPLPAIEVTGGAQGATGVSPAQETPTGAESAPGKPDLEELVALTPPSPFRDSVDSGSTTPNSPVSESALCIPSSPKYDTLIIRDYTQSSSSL

As for `N#Cc1cccc(C(=O)Nc2cc(-c3ccccc3)nn2-c2ccccc2)c1` [CDPPB, reference compound], on rat mGluR5, the “activation of rat mGluR5 receptors without co-addition of glutamate or mGluR5 agonist” value is reported as “activating”. In addition, the “activity in rat cortical astrocytes culture in the absence of added glutamate” value (“activity” for short) on mGluR5 was “inactive”.
`O=C(Nc1ccc(Cl)cc1CN1C(=O)c2ccccc2C1=O)c1ccccc1O` [CPPHA, reference compound]: the “activation of rat mGluR5 receptors without co-addition of glutamate or mGluR5 agonist” value at rat mGluR5 is listed as “activating”. Also, the “activity” value at mGluR5 is “inactive”.
As for `Fc1cccc(/C=N/N=C/c2cccc(F)c2)c1` [DFB, reference compound], the “activation of rat mGluR5 receptors without co-addition of glutamate or mGluR5 agonist” value at rat mGluR5 is reported as “activating”. Besides, on mGluR5, the “activity” value is “inactive”.
A word on the EC50: it is the concentration that produces a half-maximal response. In the case of `O=C(c1ccc(F)c(F)c1)N1CCC[C@H](c2nc(Cc3ccc(F)cc3)no2)C1` [Example 2, (3,4-Difluoro-phenyl)-{(S)-3-[3-(4-fluoro-benzyl)-[1,2,4]oxadiazol-5-yl]-piperidin-1-yl}-methanone], the EC50 on rat mGluR5 was less than 1000 nM.
On to `O=C(c1ccc(F)c(F)c1)N1CCC[C@H](c2noc(Cc3ccc(F)cc3)n2)C1` [Example 3, (3,4-Difluoro-phenyl)-{(S)-3-[5-(4-fluoro-benzyl)-[1,2,4]oxadiazol-3-yl]-piperidin-1-yl}-methanone], for which the EC50 at rat mGluR5 was less than 1000 nM.
For the molecule `O=C(c1ccc(F)cc1)N1CCC[C@H](c2noc(Cc3ccc(F)cc3)n2)C1` [Example 4, {(S)-3-[5-(4-Fluoro-benzyl)-[1,2,4]oxadiazol-3-yl]-piperidin-1-yl}-(4-fluoro-phenyl)-methanone], on rat mGluR5, the concentration giving a half-maximal response (EC50) is less than 1000 nM.
Same read-out and setting: next, `C[C@@H](c1ccccc1)c1nc([C@H]2CCCN(C(=O)c3ccc(F)cc3)C2)no1` [Example 5, (4-Fluoro-phenyl)-{(S)-3-[5-((S)-1-phenyl-ethyl)-[1,2,4]oxadiazol-3-yl]-piperidin-1-yl}-methanone]: 1000 to 10000 nM; `C[C@H](c1ccccc1)c1nc([C@H]2CCCN(C(=O)c3ccc(F)cc3)C2)no1` [Example 6, (4-Fluoro-phenyl)-{(S)-3-[5-((R)-1-phenyl-ethyl)-[1,2,4]oxadiazol-3-yl]-piperidin-1-yl}-methanone]: greater than 10000 nM.
In general, melting point refers to the temperature, or range, at which the solid turns liquid. In the case of `O=C(c1ccc(F)cc1)N1CCC[C@H](c2noc(Cc3ccccc3)n2)C1` [Example 7, [(S)-3-(5-Benzyl-[1,2,4]oxadiazol-3-yl)-piperidin-1-yl]-(4-fluoro-phenyl)-methanone], the melting point worked out at 75 °C. Besides, the EC50 at rat mGluR5 is less than 1000 nM.
Regarding `O=C(c1ccc(F)cc1)N1CCC[C@H](c2noc([C@@H](O)c3ccccc3)n2)C1` [Example 8, (4-Fluoro-phenyl)-{(S)-3-[5-((S)-hydroxy-phenyl-methyl)-[1,2,4]oxadiazol-3-yl]-piperidin-1-yl}-methanone], the melting point was 168 to 172 °C. Also, the EC50 at rat mGluR5 was greater than 10000 nM.
Turning to `O=C(c1ccc(F)cc1)N1CCC[C@H](c2noc([C@H](O)c3ccccc3)n2)C1` [Example 9, (4-Fluoro-phenyl)-{(S)-3-[5-((R)-hydroxy-phenyl-methyl)-[1,2,4]oxadiazol-3-yl]-piperidin-1-yl}-methanone], the EC50 on rat mGluR5 lay within 1000 to 10000 nM.
Still for that read-out and setting: next, `O=C(c1ccc(F)cc1)N1CCC[C@H](c2noc(CCc3ccccc3)n2)C1` [Example 10, (4-Fluoro-phenyl)-[(S)-3-(5-phenethyl-[1,2,4]oxadiazol-3-yl)-piperidin-1-yl]-methanone]: 1000 to 10000 nM.
The molecule `O=C(c1ccccc1)c1nc([C@H]2CCCN(C(=O)c3ccc(F)cc3)C2)no1` [Example 11, {3-[(S)-1-(4-Fluoro-benzoyl)-piperidin-3-yl]-[1,2,4]oxadiazol-5-yl}-phenyl-methanone] showed a melting point of 80 to 83 °C. The EC50 on rat mGluR5 lay within 1000 to 10000 nM.
For the molecule `O=C(c1ccc(F)cc1)N1CCC[C@H](c2noc(Nc3ccccc3)n2)C1` [Example 12, (4-Fluoro-phenyl)-[(S)-3-(5-phenylamino-[1,2,4]oxadiazol-3-yl)-piperidin-1-yl]-methanone], the EC50 on rat mGluR5 fell in the range of 1000 to 10000 nM.
Regarding `O=C(c1ccc(F)cc1)N1CCC[C@H](c2noc(NCc3ccc(F)cc3)n2)C1` [Example 13, {(S)-3-[5-(4-Fluoro-benzylamino)-[1,2,4]oxadiazol-3-yl]-piperidin-1-yl}-(4-fluoro-phenyl)-methanone], the 50% effective concentration (EC50) on rat mGluR5 fell in the range of 1000 to 10000 nM.
The same measure, in the same setting: next, `O=C(c1ccc(F)cc1)N1CCC[C@H](n2nnc(Cc3ccccc3)n2)C1` [Example 14, [(S)-3-(5-Benzyl-tetrazol-2-yl)-piperidin-1-yl]-(4-fluoro-phenyl)-methanone]: less than 1000 nM; `O=C(c1ccc(F)cc1)N1CCCC(c2nc(Oc3ccc(F)cc3)no2)C1` (centres unmarked) [Example 15, {3-[3-(4-Fluoro-phenoxy)-[1,2,4]oxadiazol-5-yl]-piperidin-1-yl}-(4-fluoro-phenyl)-methanone]: 1000 to 10000 nM.
Take `O=C(c1ccc(F)cc1)N1CCCC(c2nc(Oc3ccccc3)no2)C1` (centres unmarked) [Example 16, (4-Fluoro-phenyl)-[3-(3-phenoxy-[1,2,4]oxadiazol-5-yl)-piperidin-1-yl]-methanone]: the melting point lay within 96 to 100 °C. On rat mGluR5, the EC50 is less than 1000 nM.
Turning to `O=C(c1ccc(F)nc1)N1CCC[C@H](c2nc(Oc3ccccc3)no2)C1` [Example 17, (6-Fluoro-pyridin-3-yl)-[(S)-3-(3-phenoxy-[1,2,4]oxadiazol-5-yl)-piperidin-1-yl]-methanone], the half-maximal effective concentration (EC50) on rat mGluR5 is less than 1000 nM.
In the case of `O=C(c1ccc(F)nc1)N1CCC[C@H](c2nc(Oc3ccccc3F)no2)C1` [Example 18, {(S)-3-[3-(2-Fluoro-phenoxy)-[1,2,4]oxadiazol-5-yl]-piperidin-1-yl}-(6-fluoro-pyridin-3-yl)-methanone], at rat mGluR5, the EC50 was 1000 to 10000 nM.
Consider `O=C(c1ccc(F)nc1)N1CCC[C@H](c2nc(Oc3cccc(F)c3)no2)C1` [Example 19, {(S)-3-[3-(3-Fluoro-phenoxy)-[1,2,4]oxadiazol-5-yl]-piperidin-1-yl}-(6-fluoro-pyridin-3-yl)-methanone], for which the EC50 at rat mGluR5 is less than 1000 nM.
Consider `O=C(c1ccc(F)cc1)N1CCC[C@H](c2nc(Sc3ccccc3)no2)C1` [Example 20, (4-Fluoro-phenyl)-[(S)-3-(3-phenylsulfanyl-[1,2,4]oxadiazol-5-yl)-piperidin-1-yl]-methanone], for which the EC50 on rat mGluR5 is greater than 10000 nM.
Take `O=C(c1ccc(F)cc1)N1CCCC(c2nc(Oc3cccc(F)c3)no2)C1` (centres unmarked) [Example 21, {3-[3-(3-Fluoro-phenoxy)-[1,2,4]oxadiazol-5-yl]-piperidin-1-yl}-(4-fluoro-phenyl)-methanone]: the melting point fell in the range of 99 to 102 °C. Further, the half-maximal effective concentration (EC50) on rat mGluR5 is less than 1000 nM.
For `O=C(c1ccncc1F)N1CCC[C@H](c2nc(Oc3ccccc3)no2)C1` [Example 22, (3-Fluoro-pyridin-4-yl)-[(S)-3-(3-phenoxy-[1,2,4]oxadiazol-5-yl)-piperidin-1-yl]-methanone], the EC50 at rat mGluR5 was 1000 to 10000 nM.

Source of the values: patent US20100004284A1, “Novel Heterocyclic Compounds as Positive Allosteric Modulators of Metabotropic Glutamate Receptors” (ADDEX PHARMA SA, priority 2005, published 2010).
